{"source": "paper PMC4241021", "about": "(Nature communications, 2014)", "conditions_in_all_cases": "labelled compound; 5 mM MgCl2, 50 mM KCl, Tris-HCl pH 8.0, 37 °C", "key": {"P1 ParB": {"target": "P1 ParB (Punavirus P1, UniProt Q38420)", "sequence (Q38420 1-333)": "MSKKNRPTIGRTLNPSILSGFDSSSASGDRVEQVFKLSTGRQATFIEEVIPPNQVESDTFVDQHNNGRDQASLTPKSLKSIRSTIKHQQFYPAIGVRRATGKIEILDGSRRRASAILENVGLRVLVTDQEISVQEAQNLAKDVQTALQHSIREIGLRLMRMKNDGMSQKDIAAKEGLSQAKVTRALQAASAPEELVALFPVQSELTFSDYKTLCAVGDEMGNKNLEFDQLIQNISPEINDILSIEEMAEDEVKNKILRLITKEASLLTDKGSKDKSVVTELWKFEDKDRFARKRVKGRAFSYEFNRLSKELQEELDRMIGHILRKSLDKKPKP"}, "RK2 KorB": {"target": "RK2 KorB (Escherichia coli, UniProt P07674)", "sequence (P07674 whole entry)": "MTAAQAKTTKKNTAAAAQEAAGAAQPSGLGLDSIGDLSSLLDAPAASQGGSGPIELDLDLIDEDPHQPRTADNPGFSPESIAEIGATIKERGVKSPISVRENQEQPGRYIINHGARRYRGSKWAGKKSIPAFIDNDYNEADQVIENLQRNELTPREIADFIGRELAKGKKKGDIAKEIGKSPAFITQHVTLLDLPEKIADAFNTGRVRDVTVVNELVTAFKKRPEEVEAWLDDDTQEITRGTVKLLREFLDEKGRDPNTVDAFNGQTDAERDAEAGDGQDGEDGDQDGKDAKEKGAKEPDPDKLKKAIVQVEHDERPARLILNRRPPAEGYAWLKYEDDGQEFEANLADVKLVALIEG"}, "ICE1056Fin": {"target": "ICE1056Fin (Haemophilus influenzae, UniProt A0A8I2XW01)", "sequence (A0A8I2XW01 1-185)": "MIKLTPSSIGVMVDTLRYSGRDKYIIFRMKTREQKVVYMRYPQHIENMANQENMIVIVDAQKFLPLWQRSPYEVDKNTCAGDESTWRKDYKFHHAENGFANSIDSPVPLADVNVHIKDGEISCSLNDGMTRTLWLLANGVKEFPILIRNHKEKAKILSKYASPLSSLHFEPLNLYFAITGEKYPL"}}, "data": [{"molecule": "Nc1ncnc2c1ncn2[C@@H]1O[C@H](COP(=O)(O)OP(=O)(O)OP(=O)(O)O)[C@@H](O)[C@H]1O", "note": "[ATP]", "values": [{"measurement": "TLC ATPase assay, γ-phosphate release", "setting": "P1 ParB", "result": "ICE1056Fin, P1 ParB and RK2 KorB also exhibited comparable ATPase activity"}, {"measurement": "TLC ATPase assay, γ-phosphate release", "setting": "RK2 KorB", "result": "ICE1056Fin, P1 ParB and RK2 KorB also exhibited comparable ATPase activity"}, {"measurement": "TLC ATPase assay, γ-phosphate release", "setting": "ICE1056Fin", "result": "ICE1056Fin, P1 ParB and RK2 KorB also exhibited comparable ATPase activity"}]}]}
